Measurements reported in patent publication US20010044151A1, “Ligands for modulating the expression of exogenous genes via an ecdysone receptor complex” (priority 1998, published 2001).

The compounds below were run against T1, ecdysteroid receptor complex in Plodia interpunctella (IAL-PID2) nuclear extract (Plodia interpunctella, UniProt Q6RVD3) (assay: Competitive 3H-ponasterone A binding assay, Plodia nuclear ecdysone receptor extract). Details: 3H-ponasterone A displacement.
T1 sequence (Q6RVD3 1-541): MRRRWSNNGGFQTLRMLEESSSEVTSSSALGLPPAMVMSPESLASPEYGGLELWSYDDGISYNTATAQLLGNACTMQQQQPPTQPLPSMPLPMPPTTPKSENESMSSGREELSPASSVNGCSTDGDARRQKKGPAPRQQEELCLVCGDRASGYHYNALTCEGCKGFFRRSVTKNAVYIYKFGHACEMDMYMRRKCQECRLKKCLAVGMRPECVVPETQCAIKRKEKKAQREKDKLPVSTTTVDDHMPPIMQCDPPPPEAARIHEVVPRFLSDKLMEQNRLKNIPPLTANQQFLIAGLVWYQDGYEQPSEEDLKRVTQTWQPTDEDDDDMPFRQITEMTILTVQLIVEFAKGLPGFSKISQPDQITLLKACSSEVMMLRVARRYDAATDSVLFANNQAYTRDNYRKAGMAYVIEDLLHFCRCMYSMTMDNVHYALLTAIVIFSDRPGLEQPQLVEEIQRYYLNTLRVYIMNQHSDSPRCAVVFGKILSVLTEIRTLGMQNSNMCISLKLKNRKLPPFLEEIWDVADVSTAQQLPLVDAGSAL
T1 sequence (Q6IVK1 1-415 partner): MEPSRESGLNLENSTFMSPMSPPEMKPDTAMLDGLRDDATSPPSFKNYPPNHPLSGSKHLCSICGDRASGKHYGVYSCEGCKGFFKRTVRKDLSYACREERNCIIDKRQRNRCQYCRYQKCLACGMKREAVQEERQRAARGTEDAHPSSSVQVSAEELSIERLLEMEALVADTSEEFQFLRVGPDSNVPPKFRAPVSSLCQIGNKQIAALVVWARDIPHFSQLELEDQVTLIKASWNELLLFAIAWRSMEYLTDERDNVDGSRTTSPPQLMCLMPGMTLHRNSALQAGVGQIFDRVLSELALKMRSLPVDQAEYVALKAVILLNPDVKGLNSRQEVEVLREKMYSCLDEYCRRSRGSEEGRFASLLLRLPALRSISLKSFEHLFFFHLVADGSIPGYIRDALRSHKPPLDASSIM
Experimental: The cell line IAL-PID2, derived from imaginal wing discs of the lepidopteran Plodia interpunctella was obtained from H. Oberlander and maintained as described (Lynn, E. E. and Oberlander, H., (1983), J. Insect Physiology, 29, 591-96). A 300 ml stationary phase culture of P. interpunctella cells was centrifuged at 700×g for 10 mm at room temperature to pellet the cells. The supernatant was aspirated and the cellular pellet resuspended in 35 ml TMT (TM buffer with 0.1% Triton X-100). The suspension was homogenized with twenty up and down strokes of a Dounce homogenizer on ice. Homogenate was incubated on ice for 10 minutes and then centrifuged for 15 min at 900×g. The pellet was resuspenced in 15 ml TM buffer and centrifuged at 2,300×g. This pellet was extracted in TMK buffer (TM buffer with 800 mM KCl) by using a glass rod to crush the pellet until a gelatinous slurry was formed and incubated on ice for 15 minutes. The extract was centrifuged at 100,000×g in a swinging bucket rotor for 60 minutes. The supernatant, which constituted the nuclear extract, was desalted on a 10 DG desalting column (Bio-Rad, 732-2010) equilibrated with T-buffer. The total protein concentration in the nuclear extract was adjusted to 5 mg per ml with T-buffer containing 1 mM DTT.
^3H ponasterone A, a potent phytoecdysteroid, (66,000 dpm; specific activity 170 Ci/mmole; NEN Life Science Products, Boston, Mass.) was mixed with 100 μl Kc cytosolic or Plodia nuclear ecdysone receptor extracts in […] glass test tubes in the absence or presence of 10 μM unlabelled 20-hydroxyecdysone (20E) to obtain an estimate of total or non-specific respectively, binding of tritiated ponasterone A. The tubes were vortexed and incubated overnight at 4° C. for Kc cytosolic extracts or 1.5 hours for Plodia nuclear extracts for binding reactions to reach equilibrium. At the end of equilibrium binding times, the bound tritiated ponasterone A was separated from the unbound by addition of ice-cold 600 μl or 300 μl dextran-coated charcoal solution (500 mg of Sigma HCL-washed activated charcoal, 50 mg Pharmacia Dextran T70, 50 ml T-buffer) to Kc or Plodia extracts, respectively. The tubes were vortexed briefly and centrifuged at 7,000×g to pellet the charcoal. The supernatant, 600 μl or 300 μl for Kc or Plodia extract reactions, respectively, containing tritiated ponasterone A bound to proteins, was aspirated into liquid scintillation vials containing 5 ml scintillation cocktail (ReadySafe®, Beckmann) each The mixture was vortexed and the amount of total or non-specifically bound radioactivity measured in a Beckmann LS500 liquid scinitllation counter with a 60% counting efficiency for tritium.
The concentrations of competitors that inhibited 50% of tritiated ponasterone A binding (IC50) was determined by incubating Kc or Plodia nuclear extracts or extracts of bacteria producing CfEcR(CDEF)-GST and CfUSP-GST fusions proteins with ^3H-ponasterone A (66,000 dpm per reaction) in the presence of a range of concentrations (0.1 nM to 10 μM) of test compounds. In the case of binding reactions using bacterial fusion proteins, 20 or one μl extract of bacteria producing CfEcR(CDEF)-GST or CfUSP-GST fusion proteins, respectively, were included per binding reaction. The assay conditions and determination of total and non-specific binding was as described above. The volume of competitor in solvent, like that for 20E or solvent alone, was kept at 1% of total reaction volume by using a 100 fold concentrated stock solution (i.e. a 100 fold dilution of stock solutions). The remainder of the assay was as described above. Each reaction was carried out in duplicate per concentration per test compound. Specific binding of ^3H-ponasterone A was determined by subtracting non-specific binding (that obtained in the presence of 10 μM 20E) from total (no competitor) or competed radioactivity bound. […]
For `CCc1c(OC)cccc1C(=O)NN(C(=O)c1cccc(OC)c1)C(C)(C)C` [Ligand 1], the “Plodia log(1/IC50)” value was 8.52. For `CCc1c(OC)cccc1C(=O)NN(C(=O)c1cc(F)cc(F)c1)C(C)(C)C` [Ligand 4], the “Plodia log(1/IC50)” value was 8.51. With `CCOc1cccc(C(=O)NN(C(=O)c2cc(C)cc(C)c2)C(C)(C)C)c1CC` [Ligand 12] the “Plodia log(1/IC50)” value was 9.63. `CCc1c(OC)cccc1C(=O)NN(C(=O)c1cc(Cl)cc(Cl)c1)C(C)(C)C` [Ligand 13] was tested, and the “Plodia log(1/IC50)” value was 9.06. `COc1cccc(C(=O)NN(C(=O)c2cc(C)cc(C)c2)C(C)(C)C)c1C` [Ligand 3] was tested, and the “Plodia log(1/IC50)” value was 9.04. In the case of `CCc1c(OC)cccc1C(=O)NN(C(=O)c1cc(C)cc(C)c1)C(C)(C)C` [Ligand 5], the “Plodia log(1/IC50)” value is reported as 9.49. `Cc1cc(C)cc(C(=O)N(NC(=O)c2ccc3c(c2C)OCCO3)C(C)(C)C)c1` [Ligand 2] was tested, and the “Plodia log(1/IC50)” value was 9.14.
